Earlier results in patent US8486889B1, “Composition and method for the treatment and prevention of endothelial dysfunction” (Advanced Medical Instruments, priority 2001, dated 2013).

Columns and labels:
[1] = aspirin use
[2] = in a fast dissolving tablet
[3] = 325 mg ASA every other day
[4] = those on ASA
[5] = 500 mg/day, after one month
[6] = glucosamine combined with an NSAID, activity preserved
[7] = not given; remark: listed apart in the source
[8] = in vivo
[9] = Vioxx compared to naproxen
[10] = rabbit
[11] = taken orally, versus placebo
[12] = rats, intragastric indomethacin, pre-treatment with zinc sulphate
[13] = simultaneous administration of zinc
[14] = 600 mg per day, double-blind trial

Compound: CC(=O)Oc1ccccc1C(=O)O [ASA, Acetylsalicylic acid]
- time to reach blood levels and inhibit platelet activity (chewing the tablet): 5 min
- time to reach peak blood levels (in vivo): 30 min
- reduction of the risk of breast cancer [1]: 20%
- reduction of the risk of colorectal cancer [1]: 50%
- reduction of the risk of lung cancer [1]: 30%
- reduction of the risk of prostate cancer [1]: 50%
- ASA absorbed by the buccal mucosa [2]: 16-35%
- reduction in the incidence of subsequent myocardial infarction, stroke, and death from cardiovascular causes ([3]; about 5 years): 25%
- reduction in the incidence of first myocardial infarction ([3]; about 5 years, 22,000 US male physicians): 44%
- fewer strokes [4]: 42%

Compound: O=C1O[C@H]([C@@H](O)CO)C(O)=C1O [Ascorbic acid]
- lowering of systolic blood pressure [5]: 10%

Compound: N[C@H]1C(O)O[C@H](CO)[C@@H](O)[C@@H]1O (stereo partly shown) [Glucosamine]
- factor of decrease of the amount of NSAID required to produce an antiexudative result [6]: 2-2.7 times
- solubility [7]: very soluble in water
- absorbed in the GI tract [8]: 90%

Compound: COc1ccc2[nH]cc(CCNC(C)=O)c2c1 [Melatonin]
- solubility [7]: high lipid and aqueous solubility

Compound: CS(=O)(=O)c1ccc(C2=C(c3ccccc3)C(=O)OC2)cc1 [Vioxx, rofecoxib]
- risk of myocardial infarction [9]: four fold risk

Compound: CNC[C@H](O)c1ccc(O)c(O)c1 [epinephrine, Epinephrine]
- time to peak of effectiveness ([10]; 2.5 mg sublingual tablet): 20.8 min
- time to peak effectiveness ([10]; injection): 15.8 min

Compound: O=S(=O)([O-])[O-].[Zn+2] [zinc sulphate]
- rate of gastric ulcer healing [11]: three times the rate of a placebo
- mucosal ulcerations [12]: completely prevented

Compound: [Zn] [zinc]
- salicylate-induced hearing loss [13]: completely prevented

Compound: Vitamin E
- endothelial-dependent dilation of the brachial artery [14]: showed improvement
